{"source": "paper PMC2535826", "about": "“Cross-Species Differential Plasma Protein Binding of MBX-102/JNJ39659100: A Novel PPAR-γ Agonist” (PPAR Research, 2008)", "key": {"[1]": {"test": "Plasma protein binding by equilibrium dialysis, mouse plasma", "format": "in vitro ADME, CD-1 mice", "conditions": "CD-1, pH 7.4, MBX-102 acid 2000 μM, equilibrium dialysis vs PBS, 37°C, read-out: %Protein Binding ± SD (converted)", "protocol": "(§1) Radiolabeled MBX-102 acid was prepared as a 1 mL ethanol solution at a concentration of 50 μM (1 mCi total). […] Final solvent concentrations were 1% of the total volume. Plasma was stored at −20°C. Prior to use, it was thawed and spun at approximately 2000 rpm for 5 minutes to remove any precipitated material. The pH was adjusted to pH 7.4 by careful addition of NaH2PO4. A 1 mL sample of spiked plasma was prepared by direct dilution of [^3H]-MBX-102 acid stock solution into plasma and then added to one side of an equilibrium dialysis chamber. The other chamber was filled with 1 mL of 0.01 M phosphate buffered saline (PBS). The dialysis apparatus was placed in a water bath at 37°C and rotated at 20 rpm. […] Once equilibrium was established, the contents of the cell chambers were removed and analyzed by liquid scintillation counting. The chambers were sampled in triplicate. […] The recovery percentage was found not to vary with MBX-102 acid concentration."}, "[2]": {"molecular_target": "T1, human PPAR-γ ligand-binding domain (Homo sapiens, UniProt P37231)", "T1 construct": "GST-PPARγ-LBD (5 nM), Tb-labeled anti-GST antibody (5 nM); purchased Invitrogen", "T1 sequence (P37231 238-503 limits assumed)": "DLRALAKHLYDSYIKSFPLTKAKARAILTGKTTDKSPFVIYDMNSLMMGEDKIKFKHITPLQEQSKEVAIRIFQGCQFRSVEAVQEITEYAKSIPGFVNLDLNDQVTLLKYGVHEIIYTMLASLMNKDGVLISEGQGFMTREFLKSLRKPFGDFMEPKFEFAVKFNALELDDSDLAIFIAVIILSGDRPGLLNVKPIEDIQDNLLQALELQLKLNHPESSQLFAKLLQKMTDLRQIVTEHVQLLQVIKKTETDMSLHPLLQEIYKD", "test": "Lanthascreen TR-FRET NCOR corepressor displacement assay", "format": "biochemical", "conditions": "for IC50: 3 experiments, mean ± SD, read-out: IC50 displacement of NCOR corepressor peptide", "protocol": "Assays were performed according to the manufacturer’s instructions. […] Life Science, Lowell, Mass, USA). […] The plate was covered and incubated for 4 hours at room temperature. The time resolved fluorescence resonance energy transfer (TR-FRET) signal was measured using a Pherastar fluorescence counter (BMG labtech, Offenburg, Germany). The ratio of the emission intensity of the acceptor (Fluorescein: λ = 520 nm) divided by the emission intensity of the donor (Tb: λ = 490 nm) was then calculated to determine the degree of NCOR binding. Each measurement was performed in quadruplicate."}, "[3]": {"test": "Plasma protein binding by equilibrium dialysis, human plasma", "format": "in vitro ADME", "conditions": "equilibrium dialysis vs PBS, 37°C, read-out: %Protein Binding ± SD (converted)", "protocol": "as §1"}, "[4]": {"molecular_target": "T2, rat serum albumin (Rattus norvegicus, UniProt P02770)", "T2 construct": "purchased Sigma", "T2 sequence (P02770 25-608)": "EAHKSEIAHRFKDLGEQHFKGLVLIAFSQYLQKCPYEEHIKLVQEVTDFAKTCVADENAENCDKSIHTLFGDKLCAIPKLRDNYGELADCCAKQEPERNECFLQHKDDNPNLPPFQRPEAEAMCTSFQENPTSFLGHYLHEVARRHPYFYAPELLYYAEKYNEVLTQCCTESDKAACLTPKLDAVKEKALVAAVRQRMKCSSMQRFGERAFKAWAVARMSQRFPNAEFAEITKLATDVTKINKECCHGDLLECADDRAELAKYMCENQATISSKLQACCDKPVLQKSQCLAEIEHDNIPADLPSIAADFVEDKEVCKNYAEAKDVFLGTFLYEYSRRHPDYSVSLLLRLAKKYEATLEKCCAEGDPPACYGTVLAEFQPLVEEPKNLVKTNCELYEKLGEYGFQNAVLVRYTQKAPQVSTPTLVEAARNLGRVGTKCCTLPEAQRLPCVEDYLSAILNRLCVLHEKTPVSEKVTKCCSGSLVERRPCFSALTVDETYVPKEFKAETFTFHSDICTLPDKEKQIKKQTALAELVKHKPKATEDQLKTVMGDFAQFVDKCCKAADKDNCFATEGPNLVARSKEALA", "test": "Albumin binding by surface plasmon resonance (SPR), RSA", "protocol": "The characterization of the binding of MBX-102 acid against human, mouse, and rat albumin was performed using SPR-based biosensors (Biosensor Tools, Salt Lake City, Utah, USA). The assay methods used to assess the binding of MBX-102 acid to human, mouse, and rat albumins have been described previously. Briefly, each albumin was immobilized onto a CM5 sensor chip using standard amine coupling. Immobilization densities were between 10 000 and 13 000 RU. […] Each of the 16 different concentrations was tested in duplicate. […] All binding data were collected at 37°C. The binding response profile of MBX-102 acid over the three different albumin surfaces was evaluated and the binding constants for the high-affinity site were determined using a two-independent-site model. Conversion from KD to %bound was performed as previously described."}, "[5]": {"test_system": "human alpha-1-acid glycoprotein", "test": "Equilibrium dialysis binding to purified human alpha-1-acid glycoprotein", "format": "in vitro ADME", "conditions": "purified human alpha-1-acid glycoprotein 22.5 μM, data not shown", "protocol": "Stock solutions of human serum albumin and alpha-1-acid glycoprotein were prepared in PBS buffer. […] The spiked protein solution (175 μL) was added to one side of an equilibrium dialysis chamber, and an equal volume of PBS buffer was added to the other chamber. Dialysis was allowed to reach equilibrium and the binding to protein was determined by liquid scintillation counting of samples from both chambers as described above."}, "[6]": {"test_system": "rat and human plasma", "test": "Competitive equilibrium dialysis, rat versus human plasma", "format": "in vitro ADME, Sprague-Dawley rat", "conditions": "37°C, n = 5", "protocol": "A comparison of the binding to plasma from different species was performed essentially by the method described below. Briefly, [^3H] MBX-102 acid spiked plasma samples were formulated as described above with the exception that pH was not adjusted to 7.4 and the final DMSO concentration was 0.6%. A 1 mL sample of spiked human plasma was applied to one side of the dialysis membrane and 1 mL of spiked animal plasma was applied to the other side. The samples were dialyzed by rotation at 20 rpm for up to 120 hours in a 37°C incubator. The ratio of free drug in plasma was calculated according to the equation: ratio of free drug (animal versus human) = (total cpm in human plasma)/(total cpm in animal plasma)."}, "[7]": {"test": "Plasma protein binding by equilibrium dialysis, rat plasma", "format": "in vitro ADME, Sprague Dawley rats", "conditions": "Sprague Dawley, equilibrium dialysis vs PBS, 37°C, read-out: %Protein Binding ± SD (converted)", "protocol": "as §1"}}, "note": "Values joined by “and” are separate entries in the source; they are usually repeats but may differ in a detail not shown here. Identical values can stand only once. Like-named read-outs stand apart in the source and are kept apart here.", "data": [{"smiles": "O=C(O)[C@H](Oc1cccc(C(F)(F)F)c1)c1ccc(Cl)cc1", "note": "(stereo in doubt) [MBX-102 acid]", "values": [{"measurement": "fraction unbound at 2000 µM", "setting": "[1]", "value": 0.005}, {"measurement": "IC50", "setting": "[2]; 0% serum", "value": "11 µM and 10.6 µM"}, {"measurement": "IC50", "setting": "[2]; 10% (v/v) human serum", "value": "98.5 ± 6.6", "unit": "µM"}, {"measurement": "IC50", "setting": "[2]; 40% (v/v) human serum", "value": "200 ± 6.4", "unit": "µM"}, {"measurement": "IC50", "setting": "[2]; 40% (v/v) mouse serum", "value": "28.1 ± 2.6", "unit": "µM"}, {"measurement": "IC50", "setting": "[2]; 40% (v/v) rat serum", "value": "57.9 ± 14.2", "unit": "µM"}, {"measurement": "fold shift in the IC50", "setting": "[2]; 40% human serum versus no serum", "value": "≤ 19", "unit": "fold"}, {"measurement": "FC, IC50 fold change human-to-mouse serum", "setting": "[2]; 40% serum", "value": "7 and 7.17"}, {"measurement": "FC, IC50 fold change human-to-rat serum", "setting": "[2]; 40% serum", "value": "4 and 3.59"}, {"measurement": "fraction unbound at 400 µM", "setting": "[3]; pH 7.4, MBX-102 acid 400 μM", "value": 0.002}, {"measurement": "fraction unbound at 600 µM", "setting": "[3]; pH 7.4, MBX-102 acid 600 μM", "value": 0.002}, {"measurement": "fraction unbound at 1000 µM", "setting": "[3]; pH 7.4, MBX-102 acid 1000 μM", "value": 0.003}, {"measurement": "fraction unbound at 2000 µM", "setting": "[3]; pH 7.4, MBX-102 acid 2000 μM", "value": 0.002}, {"measurement": "%Bound", "setting": "[4]; RSA, converted from KD", "value": 98.1, "unit": "%"}, {"measurement": "Kd", "setting": "[4]; RSA, high-affinity site, two-independent-site model, 37°C, pH 7.4", "value": 12.8, "unit": "µM"}, {"measurement": "fraction unbound", "setting": "[4]; rat, rat serum albumin immobilized on a CM5 sensor chip, pH 7.4, RSA, converted from KD, read-out: %Bound", "value": "< 0.02"}, {"measurement": "binding to human alpha 1-acid glycoprotein", "setting": "[5]", "value": "< 5", "unit": "%"}, {"measurement": "Free Fraction Ratio Rat:Human", "setting": "[6]; MBX-102 acid 100 μM", "value": "2.3 ± 0.6"}, {"measurement": "Free Fraction Ratio Rat:Human", "setting": "[6]; MBX-102 acid 300 μM", "value": "2.3 ± 0.6"}, {"measurement": "Free Fraction Ratio Rat:Human", "setting": "[6]; MBX-102 acid 700 μM", "value": "2.0 ± 0.3"}, {"measurement": "Free Fraction Ratio Rat:Human", "setting": "[6]; MBX-102 acid 1000 μM", "value": "1.8 ± 0.2"}, {"measurement": "Free Fraction Ratio Rat:Human", "setting": "[6]; MBX-102 acid 1300 μM", "value": "1.7 ± 0.2"}, {"measurement": "fraction unbound at 400 µM", "setting": "[7]; pH 7.4, MBX-102 acid 400 μM", "value": 0.002}, {"measurement": "fraction unbound at 600 µM", "setting": "[7]; pH 7.4, MBX-102 acid 600 μM", "value": 0.002}, {"measurement": "fraction unbound at 1000 µM", "setting": "[7]; pH 7.4, MBX-102 acid 1000 μM", "value": 0.003}, {"measurement": "fraction unbound at 1500 µM", "setting": "[7]; pH 7.4, MBX-102 acid 1500 μM", "value": 0.002}, {"measurement": "fraction unbound at 2000 µM", "setting": "[7]; pH 7.4, MBX-102 acid 2000 μM", "value": 0.005}]}]}
